Test: xn = mol fraction of the nth substance listed
Settings: 298.15 K, 101 kPa

CCOS(=O)(=O)[O-].CC[n+]1ccn(C)c1 + CCO
Settings | speed of sound [m/s] | viscosity [mPa·s]
x2 = 0.1271 | 1657 | 65.5
x2 = 0.1281 | 1655 | 66.1
x2 = 0.2039 | 1636 | 49.8
x2 = 0.3088 | 1603 | 34.69
x2 = 0.3256 | 1598 | 32.21
x2 = 0.3598 | 1586 | 28.75
x2 = 0.4147 | 1566 | 22.88
x2 = 0.4336 | 1558 | 21.39
x2 = 0.4604 | 1545 | 18.98
x2 = 0.5103 | 1525 | 15.4
x2 = 0.5223 | 1516 | 14.78
x2 = 0.5724 | 1490 | 11.74
x2 = 0.5926 | 1480 | 10.83
x2 = 0.5951 | 1467 | 10.65
x2 = 0.712 | 1407 | 6.13
x2 = 0.7174 | 1406 | 5.98
x2 = 0.7676 | 1369 | 4.68
x2 = 0.806 | 1339 | 3.86
x2 = 0.8666 | 1286 | 2.709
x2 = 0.9026 | 1253 | 2.189
x2 = 0.9062 | 1248 | 2.138
x2 = 0.9504 | 1202 | 1.628
x2 = 0.9522 | 1200 | 1.589
